One series deals with T1, HCV Pol (Hepatitis C virus genotype 1b, UniProt Q9WMX2).
T1 construct: expressed in transfected cells
The series can be described thus: Renilla luciferase HCV replicon assay. The format is cell-based. A general note: A replicon is a self-replicating genome or part of one, used to study replication in cells.

A short description of the next series: in vitro. As to conditions: human.
Series [1] concerns Renilla luciferase HCV replicon cells (2209-23).
The subject of series [2] is human primary hepatocytes. The experiment in a line: Intracellular triphosphate concentration and half life. It counts as in vitro ADME. The note with it: 2 μM. As to the method: The putative active species of the compounds of the invention is β-D-2′-deoxy-2′-β-C-methyl-4′-azidocytidine triphosphate. The stability of the triphosphate is determined in fresh human primary hepatocytes (CellzDirect or In Vitro Technologies) pre-incubated with tritiated parent compound. The hepatocytes are cultured on 6 well collagen coated plates (BD Biosciences), typically at 1.5 million cells/well using complete serum-containing medium (CellzDirect or In Vitro Technologies)/37° C./5% CO2. Various hepatocyte strains are available, such as Hu497, MHL-091806 and Hu504 and it is therefore useful to test such strains in parallel and calculate mean values from a range of strains.
The pre-incubation is typically for 24 hours with 2 μM of the tritiated parent at 10 μC/ml. […] The concentration of intracellular triphosphate is quantified at different time points up to 72 hours. […]
At the appropriate timepoint, cells are harvested by aspirating the cell culture medium and washing the cells with cold PBS. […] The parent and intracellular metabolites are identified by comparison of the retention times of the intracellular species in the radiochromatogram with the retention of non-radioactive reference standards spiked in the cell extract samples and detected by UV absorption, typically at 270 nm […]

T1 sequence (Q9WMX2 2420-3010): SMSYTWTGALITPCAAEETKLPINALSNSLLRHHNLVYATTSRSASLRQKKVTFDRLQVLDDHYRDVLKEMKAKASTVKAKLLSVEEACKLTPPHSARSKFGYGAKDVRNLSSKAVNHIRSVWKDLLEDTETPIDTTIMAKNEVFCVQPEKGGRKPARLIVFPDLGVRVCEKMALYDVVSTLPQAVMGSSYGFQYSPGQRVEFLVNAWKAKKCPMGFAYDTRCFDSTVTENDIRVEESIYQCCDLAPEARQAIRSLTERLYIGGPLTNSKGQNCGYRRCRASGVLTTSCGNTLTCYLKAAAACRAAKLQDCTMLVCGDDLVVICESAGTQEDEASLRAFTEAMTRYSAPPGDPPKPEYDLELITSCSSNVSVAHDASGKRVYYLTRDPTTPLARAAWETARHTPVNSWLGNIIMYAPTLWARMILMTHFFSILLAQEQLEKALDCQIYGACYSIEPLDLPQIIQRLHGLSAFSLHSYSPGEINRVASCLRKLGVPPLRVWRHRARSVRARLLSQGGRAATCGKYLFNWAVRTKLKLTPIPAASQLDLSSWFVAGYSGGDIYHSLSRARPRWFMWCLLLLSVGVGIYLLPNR

The inhibition is the drop in the measured response relative to a control, in per cent. Regarding `CC1C(n2ccc(N)nc2=O)OC(CO)(N=[N+]=[N-])C1O` (centres unmarked) [Compound 22, 4-Amino-1-(5-azido-4-hydroxy-5-hydroxymethyl-3-methyl-tetrahydro-furan-2-yl)-1H-pyrimidin-2-one], the “activity in cell based replicon assay for HCV polymerase activity (in words)” value at HCV Pol is on record as “good activity”. Also, the inhibition at 100 µM at HCV Pol (100 μM, cell based replicon assay, read-out: Maximum % Inhibition HCV Pol (100 μM)) was found to be 98.6%. Further, in the series “in vitro”, the cytotoxicity at 100 µM came to 9.48%. The “cytotoxicity in the replicon assay (in words)” value in series [1] was “low levels of cytoxicity”.
With `C[C@@]1(F)[C@H](O)[C@@H](CO)O[C@H]1n1ccc(N)nc1=O` [PSI-6130, β-D-2′-deoxy-2′-fluoro-2′-β-C-methylcytidine], the “steady state triphosphate level at 24 hours” value in series [2] is recorded as 1.3 pM/million cells.

The values are drawn from patent US8158779B2, “Antiviral nucleosides” (Medivir AB, priority 2006, dated 2012).
